From US12258327B2, “5-membered heteroaryl-containing aminopyridine compounds as EGFR inhibitors” (YUHAN CORPORATION, priority 2021, dated 2025)
Read-outs that look alike come from different tables or passages of the source.

How the values were obtained:
EGFR wildtype (WT) = EGFR wildtype (WT) (Homo sapiens, UniProt P00533); experiment: Biochemical EGFR kinase assay (Lance Ultra TR-FRET), wildtype
Method in brief: (§1)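 Step 1: compound in kinase buffer, 0.003–10 μM. Step 2: kinase reaction 1 h at room temperature. Step 4: TR-FRET read at 615/665 nm; IC50 calculated.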

EGFR L858R/T790M/C797S = EGFR L858R/T790M/C797S (Homo sapiens, UniProt P00533, C797S/L858R/T790M); experiment: Biochemical EGFR kinase assay (Lance Ultra TR-FRET), triple mutant L858R/T790M/C797S
Chain of EGFR L858R/T790M/C797S (P00533 25-1210 T790M/C797S/L858R): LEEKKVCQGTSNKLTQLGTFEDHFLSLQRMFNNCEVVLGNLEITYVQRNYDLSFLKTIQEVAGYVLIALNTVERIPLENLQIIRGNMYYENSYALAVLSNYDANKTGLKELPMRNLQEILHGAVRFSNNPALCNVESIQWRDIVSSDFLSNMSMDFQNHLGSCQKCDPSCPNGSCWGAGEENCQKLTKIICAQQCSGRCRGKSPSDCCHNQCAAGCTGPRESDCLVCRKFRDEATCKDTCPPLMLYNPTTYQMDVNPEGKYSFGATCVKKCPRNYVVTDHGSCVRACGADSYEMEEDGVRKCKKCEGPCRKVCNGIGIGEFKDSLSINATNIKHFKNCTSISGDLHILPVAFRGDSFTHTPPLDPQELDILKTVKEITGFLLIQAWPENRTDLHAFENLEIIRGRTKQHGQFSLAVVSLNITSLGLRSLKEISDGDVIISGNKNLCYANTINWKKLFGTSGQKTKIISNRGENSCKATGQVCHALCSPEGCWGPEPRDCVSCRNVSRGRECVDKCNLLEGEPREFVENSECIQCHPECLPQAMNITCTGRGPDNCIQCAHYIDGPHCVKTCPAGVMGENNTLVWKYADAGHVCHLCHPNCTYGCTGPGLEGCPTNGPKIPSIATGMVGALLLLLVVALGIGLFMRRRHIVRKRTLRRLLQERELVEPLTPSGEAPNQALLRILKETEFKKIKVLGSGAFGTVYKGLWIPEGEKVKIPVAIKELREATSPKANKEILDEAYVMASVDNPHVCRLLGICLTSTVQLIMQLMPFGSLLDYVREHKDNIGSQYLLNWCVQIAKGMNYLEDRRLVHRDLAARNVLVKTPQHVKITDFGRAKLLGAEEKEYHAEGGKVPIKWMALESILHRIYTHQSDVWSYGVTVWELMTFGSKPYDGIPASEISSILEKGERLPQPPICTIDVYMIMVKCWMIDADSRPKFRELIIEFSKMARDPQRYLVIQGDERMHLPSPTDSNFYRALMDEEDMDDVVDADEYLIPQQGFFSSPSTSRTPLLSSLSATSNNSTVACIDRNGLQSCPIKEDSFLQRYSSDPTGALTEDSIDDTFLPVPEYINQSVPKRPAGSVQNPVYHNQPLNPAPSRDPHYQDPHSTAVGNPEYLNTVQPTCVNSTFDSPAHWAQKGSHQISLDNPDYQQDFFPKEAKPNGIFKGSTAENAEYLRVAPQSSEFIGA
Method in brief: as §1

EGFR del19/T790M/C797S = EGFR del19/T790M/C797S (Homo sapiens, UniProt P00533, C797S/DEL746-750/T790M); experiment: Biochemical EGFR kinase assay (Lance Ultra TR-FRET), triple mutant del19/T790M/C797S
Method in brief: as §1

EGFR L858R/C797S = EGFR L858R/C797S (Homo sapiens, UniProt P00533, C797S/L858R); experiment: Biochemical EGFR kinase assay (Lance Ultra TR-FRET), double mutant L858R/C797S
Chain of EGFR L858R/C797S (P00533 25-1210 C797S/L858R): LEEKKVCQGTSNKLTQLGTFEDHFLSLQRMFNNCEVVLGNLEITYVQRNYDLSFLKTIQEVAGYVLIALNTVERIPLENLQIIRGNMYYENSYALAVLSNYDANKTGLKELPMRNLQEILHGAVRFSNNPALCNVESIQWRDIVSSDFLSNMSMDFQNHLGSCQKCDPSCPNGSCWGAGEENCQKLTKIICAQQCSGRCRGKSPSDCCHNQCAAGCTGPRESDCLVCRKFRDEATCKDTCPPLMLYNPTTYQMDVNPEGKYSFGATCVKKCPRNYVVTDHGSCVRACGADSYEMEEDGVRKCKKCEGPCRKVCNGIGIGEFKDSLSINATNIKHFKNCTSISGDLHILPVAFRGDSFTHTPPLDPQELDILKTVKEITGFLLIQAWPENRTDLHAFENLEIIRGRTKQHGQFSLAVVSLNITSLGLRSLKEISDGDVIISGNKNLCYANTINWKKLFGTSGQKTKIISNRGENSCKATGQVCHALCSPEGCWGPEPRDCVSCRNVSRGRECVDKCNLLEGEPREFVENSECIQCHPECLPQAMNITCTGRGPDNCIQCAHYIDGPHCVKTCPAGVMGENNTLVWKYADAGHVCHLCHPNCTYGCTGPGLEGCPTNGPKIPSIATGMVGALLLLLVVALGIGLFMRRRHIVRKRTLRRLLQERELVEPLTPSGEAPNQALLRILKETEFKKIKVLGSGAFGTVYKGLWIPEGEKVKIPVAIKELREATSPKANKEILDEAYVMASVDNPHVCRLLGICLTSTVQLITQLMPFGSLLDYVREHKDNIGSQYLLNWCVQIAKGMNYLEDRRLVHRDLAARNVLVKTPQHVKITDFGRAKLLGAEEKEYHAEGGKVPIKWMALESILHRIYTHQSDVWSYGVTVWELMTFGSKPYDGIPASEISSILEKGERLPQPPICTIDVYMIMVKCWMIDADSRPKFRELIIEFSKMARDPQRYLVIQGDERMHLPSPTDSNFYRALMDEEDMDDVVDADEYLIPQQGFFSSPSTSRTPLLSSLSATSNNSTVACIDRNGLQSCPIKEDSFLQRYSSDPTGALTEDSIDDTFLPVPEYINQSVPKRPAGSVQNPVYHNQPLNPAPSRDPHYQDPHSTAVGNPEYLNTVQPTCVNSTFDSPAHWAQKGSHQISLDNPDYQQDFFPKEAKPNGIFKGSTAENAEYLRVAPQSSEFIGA
Method in brief: as §1

EGFR del19/C797S = EGFR del19/C797S (Homo sapiens, UniProt P00533, C797S/DEL746-750); experiment: Biochemical EGFR kinase assay (Lance Ultra TR-FRET), double mutant del19/C797S
Chain of EGFR del19/C797S (P00533 with tags, fused parts or gaps DEL746-750/C797S): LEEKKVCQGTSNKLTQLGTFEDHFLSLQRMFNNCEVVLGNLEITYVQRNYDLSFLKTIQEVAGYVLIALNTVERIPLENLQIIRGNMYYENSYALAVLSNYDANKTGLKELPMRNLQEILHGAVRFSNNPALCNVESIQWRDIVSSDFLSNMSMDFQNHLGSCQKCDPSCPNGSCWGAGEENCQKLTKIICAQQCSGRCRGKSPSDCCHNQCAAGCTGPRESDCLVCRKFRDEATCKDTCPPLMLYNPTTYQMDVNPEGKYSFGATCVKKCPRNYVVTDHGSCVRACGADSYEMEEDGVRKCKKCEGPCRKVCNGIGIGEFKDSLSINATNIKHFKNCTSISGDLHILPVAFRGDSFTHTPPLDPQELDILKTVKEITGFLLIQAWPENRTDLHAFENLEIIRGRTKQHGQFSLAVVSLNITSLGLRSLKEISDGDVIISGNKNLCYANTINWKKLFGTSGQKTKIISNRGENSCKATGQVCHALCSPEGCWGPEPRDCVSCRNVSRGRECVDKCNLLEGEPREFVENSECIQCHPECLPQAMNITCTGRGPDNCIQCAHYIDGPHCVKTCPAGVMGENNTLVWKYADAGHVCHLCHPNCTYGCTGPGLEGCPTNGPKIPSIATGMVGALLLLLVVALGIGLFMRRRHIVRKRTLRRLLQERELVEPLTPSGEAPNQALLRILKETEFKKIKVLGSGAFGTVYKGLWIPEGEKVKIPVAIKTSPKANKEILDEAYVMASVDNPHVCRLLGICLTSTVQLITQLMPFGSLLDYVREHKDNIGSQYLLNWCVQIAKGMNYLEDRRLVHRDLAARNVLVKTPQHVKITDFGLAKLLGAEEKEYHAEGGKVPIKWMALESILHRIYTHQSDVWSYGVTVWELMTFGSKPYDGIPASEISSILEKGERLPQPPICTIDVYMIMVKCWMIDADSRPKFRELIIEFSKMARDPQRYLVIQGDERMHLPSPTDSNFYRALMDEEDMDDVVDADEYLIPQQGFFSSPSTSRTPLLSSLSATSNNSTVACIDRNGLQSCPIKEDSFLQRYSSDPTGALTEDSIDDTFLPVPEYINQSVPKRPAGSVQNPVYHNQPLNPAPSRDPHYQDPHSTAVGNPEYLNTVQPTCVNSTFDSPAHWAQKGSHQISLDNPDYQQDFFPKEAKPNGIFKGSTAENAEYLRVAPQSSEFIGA
Method in brief: as §1

[1] = IC50 WT (nM) 100 μM ATP, 100 μM ATP
[2] = Km ATP, read-out: IC50 WT (nM) Km ATP
[3] = IC50 L858R/T790M/C797S (nM) 100 μM ATP, 100 μM ATP
[4] = Km ATP, read-out: IC50 L858R/T790M/C797S (nM) Km ATP
[5] = IC50 del19/T790M/C797S (nM) 100 μM ATP, 100 μM ATP
[6] = Km ATP, read-out: IC50 del19/T790M/C797S (nM) Km ATP
[7] = IC50 L858R/C797S (nM) 100 μM ATP, 100 μM ATP
[8] = Km ATP, read-out: IC50 L858R/C797S (nM) Km ATP
[9] = IC50 del19/C797S (nM) 100 μM ATP, 100 μM ATP
[10] = Km ATP, read-out: IC50 del19/C797S (nM) Km ATP

Chain of EGFR wildtype (WT) (P00533 25-1210): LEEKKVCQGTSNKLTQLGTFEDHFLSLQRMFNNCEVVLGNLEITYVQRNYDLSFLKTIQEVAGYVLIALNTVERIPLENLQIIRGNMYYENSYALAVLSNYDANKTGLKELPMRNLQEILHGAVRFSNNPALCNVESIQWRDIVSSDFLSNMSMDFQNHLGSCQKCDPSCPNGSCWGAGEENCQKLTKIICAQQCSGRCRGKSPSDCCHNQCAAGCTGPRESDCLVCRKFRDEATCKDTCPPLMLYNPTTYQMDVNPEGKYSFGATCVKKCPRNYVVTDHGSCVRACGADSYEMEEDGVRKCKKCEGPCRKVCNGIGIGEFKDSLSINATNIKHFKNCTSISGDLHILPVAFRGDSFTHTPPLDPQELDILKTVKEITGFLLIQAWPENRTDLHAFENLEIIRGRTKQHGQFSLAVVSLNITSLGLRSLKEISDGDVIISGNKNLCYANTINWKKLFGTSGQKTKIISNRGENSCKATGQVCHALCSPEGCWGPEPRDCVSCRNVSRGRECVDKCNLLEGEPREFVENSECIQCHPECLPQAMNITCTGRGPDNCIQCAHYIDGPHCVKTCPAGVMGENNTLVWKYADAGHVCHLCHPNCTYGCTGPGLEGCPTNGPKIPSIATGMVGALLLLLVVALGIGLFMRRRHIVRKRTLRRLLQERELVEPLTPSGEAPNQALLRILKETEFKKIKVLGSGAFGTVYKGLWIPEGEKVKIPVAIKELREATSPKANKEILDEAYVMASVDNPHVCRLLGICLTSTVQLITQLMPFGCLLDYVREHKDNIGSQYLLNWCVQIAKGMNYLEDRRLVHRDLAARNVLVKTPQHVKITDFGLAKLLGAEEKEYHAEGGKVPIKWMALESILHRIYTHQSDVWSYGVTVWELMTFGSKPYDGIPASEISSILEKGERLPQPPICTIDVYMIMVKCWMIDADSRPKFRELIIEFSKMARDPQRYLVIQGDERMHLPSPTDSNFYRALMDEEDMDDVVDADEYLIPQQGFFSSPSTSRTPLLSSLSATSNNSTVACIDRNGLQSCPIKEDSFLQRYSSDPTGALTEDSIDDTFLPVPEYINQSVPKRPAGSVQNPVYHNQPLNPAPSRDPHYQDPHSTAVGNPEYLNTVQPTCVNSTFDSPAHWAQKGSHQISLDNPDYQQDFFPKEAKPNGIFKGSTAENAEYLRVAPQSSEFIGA

Row | IC50 (EGFR wildtype (WT); [1]) [nM] | IC50 (EGFR wildtype (WT); [2]) [nM] | IC50 (EGFR L858R/T790M/C797S; [3]) [nM] | IC50 (EGFR L858R/T790M/C797S; [4]) [nM] | IC50 (EGFR del19/T790M/C797S; [5]) [nM] | IC50 (EGFR del19/T790M/C797S; [6]) [nM] | IC50 (EGFR L858R/C797S; [7]) [nM] | IC50 (EGFR L858R/C797S; [8]) [nM] | IC50 (EGFR del19/C797S; [9]) [nM] | IC50 (EGFR del19/C797S; [10]) [nM] | IC50 (EGFR wildtype (WT); Km ATP, read-out: IC50 WT, Km ATP) [nM] | IC50 (EGFR L858R/T790M/C797S; Km ATP, read-out: IC50 L858R/T790M/C797S, Km ATP) [nM] | IC50 (EGFR del19/T790M/C797S; Km ATP, read-out: IC50 del19/T790M/C797S, Km ATP) [nM] | IC50 (EGFR L858R/C797S; Km ATP, read-out: IC50 L858R/C797S, Km ATP) [nM] | IC50 (EGFR del19/C797S; Km ATP, read-out: IC50 del19/C797S, Km ATP) [nM] | Compound
1 | 2500 | 2 | 0.2 | 0.1 | 0.1 | 0.1 | 3.4 | 0.3 | 0.5 | 0.2 | – | – | – | – | – | C[C@]1(O)CC[C@@H](Nc2cc(Nc3ccnc(-c4cnn(S(=O)(=O)C5CC5)c4)n3)ncc2-c2ccn(C3CC3)n2)CC1 [Example 290, (1s,4s)-4-((5-(1-Cyclopropyl-1H-pyrazol-3-yl)-2-((2-(1-(cyclopropylsulfonyl)-1H-pyrazol-4-yl)pyrimidin-4-yl)amino)pyridin-4-yl)amino)-1-methylcyclohexan-1-ol]
2 | – | 5 | – | 0.3 | – | 1.1 | – | 0.5 | – | 4.1 | – | – | – | – | – | COCn1ccc(-c2cnc(Nc3ccnc(-c4cnn(S(=O)(=O)C5CC5)c4)n3)cc2N[C@H]2CC[C@@H](C(C)(C)O)CC2)n1 [Example 299, 2-((1s,4s)-4-((2-((2-(1-(Cyclopropylsulfonyl)-1H-pyrazol-4-yl)pyrimidin-4-yl)amino)-5-(1-(methoxymethyl)-1H-pyrazol-3-yl)pyridin-4-yl)amino)cyclohexyl)propan-2-ol]
3 | > 10000 | 61 | 5.2 | 0.8 | 1.1 | 1.7 | 165 | 57.1 | 99.1 | 50.2 | – | – | – | – | – | Cn1cc(-c2nccc(Nc3cc(N[C@H]4CC[C@@](C)(O)CC4)c(-c4ccn(C(F)F)n4)cn3)n2)cn1 [Example 139, (1s,4s)-4-((5-(1-(Difluoromethyl)-1H-pyrazol-3-yl)-2-((2-(1-methyl-1H-pyrazol-4-yl)pyrimidin-4-yl)amino)pyridin-4-yl)amino)-1-methylcyclohexan-1-ol]
4 | 6320 | 6 | 0.2 | 0.1 | 0.2 | 0.1 | 20.9 | 1.2 | 0.8 | 0.4 | – | – | – | – | – | O=S(=O)(C1CC1)n1cc(-c2nccc(Nc3cc(N[C@H]4CC[C@@H](NCCF)CC4)c(-c4ccn(CC(F)F)n4)cn3)n2)cn1 [Example 242, N^2-(2-(1-(Cyclopropylsulfonyl)-1H-pyrazol-4-yl)pyrimidin-4-yl)-5-(1-(2,2-difluoroethyl)-1H-pyrazol-3-yl)-N^4-((1s,4s)-4-((2-fluoroethyl)amino)cyclohexyl)pyridine-2,4-diamine]
5 | > 10000 | 10.6 | 1.4 | 0.5 | 1.3 | 1.1 | 17.8 | 2.7 | 6.6 | 1.4 | – | – | – | – | – | O=S(=O)(C1CC1)n1cc(-c2nccc(Nc3cc(N[C@H]4CCC[C@H](CO)C4)c(-c4ccn(C(F)F)n4)cn3)n2)cn1 [Example 202, ((1S,3S)-3-((2-((2-(1-(Cyclopropylsulfonyl)-1H-pyrazol-4-yl)pyrimidin-4-yl)amino)-5-(1-(difluoromethyl)-1H-pyrazol-3-yl)pyridin-4-yl)amino)cyclohexyl)methanol]
6 | – | 72 | – | 0.9 | – | 1.6 | – | 4.7 | – | 43.5 | – | – | – | – | – | O=S(=O)(C1CC1)n1cc(-c2nccc(Nc3cc(N[C@H]4CC[C@@H](F)CC4)c(-c4ccn(C(F)F)n4)cn3)n2)cn1 [Example 151, N^2-(2-(1-(Cyclopropylsulfonyl)-1H-pyrazol-4-yl)pyrimidin-4-yl)-5-(1-(difluoromethyl)-1H-pyrazol-3-yl)-N^4-((1s,4s)-4-fluorocyclohexyl)pyridine-2,4-diamine]
7 | – | 635 | – | 9.4 | – | 110 | – | 450 | – | 6330 | – | – | – | – | – | CS(=O)(=O)N1CCC(c2nccc(Nc3cc(N[C@H]4CC[C@@](C)(O)CC4)c(-c4ccn(C(F)F)n4)cn3)n2)CC1 [Example 158, (1s,4s)-4-((5-(1-(Difluoromethyl)-1H-pyrazol-3-yl)-2-((2-(1-(methylsulfonyl)piperidin-4-yl)pyrimidin-4-yl)amino)pyridin-4-yl)amino)-1-methylcyclohexan-1-ol]
8 | – | – | – | – | – | – | – | – | – | – | 261 | 2.6 | 4.2 | 117 | 95.1 | CC1(O)CCC(Nc2cc(Nc3ccnc(N4CCC(F)(F)C(O)C4)n3)ncc2-c2ccn(C(F)F)n2)CC1 (stereo not drawn) [Example 350, 1-(4-((5-(1-(Difluoromethyl)-1H-pyrazol-3-yl)-4-(((1s,4s)-4-hydroxy-4-methylcyclohexyl)amino)pyridin-2-yl)amino)pyrimidin-2-yl)-4,4-difluoropiperidin-3-ol]

Continued, compound first:

Row | Compound | IC50 (EGFR wildtype (WT); [1]) [nM] | IC50 (EGFR wildtype (WT); [2]) [nM] | IC50 (EGFR L858R/T790M/C797S; [3]) [nM] | IC50 (EGFR L858R/T790M/C797S; [4]) [nM] | IC50 (EGFR del19/T790M/C797S; [5]) [nM] | IC50 (EGFR del19/T790M/C797S; [6]) [nM] | IC50 (EGFR L858R/C797S; [7]) [nM] | IC50 (EGFR L858R/C797S; [8]) [nM] | IC50 (EGFR del19/C797S; [9]) [nM] | IC50 (EGFR del19/C797S; [10]) [nM] | IC50 (EGFR wildtype (WT); Km ATP, read-out: IC50 WT, Km ATP) [nM] | IC50 (EGFR L858R/T790M/C797S; Km ATP, read-out: IC50 L858R/T790M/C797S, Km ATP) [nM] | IC50 (EGFR del19/T790M/C797S; Km ATP, read-out: IC50 del19/T790M/C797S, Km ATP) [nM] | IC50 (EGFR L858R/C797S; Km ATP, read-out: IC50 L858R/C797S, Km ATP) [nM] | IC50 (EGFR del19/C797S; Km ATP, read-out: IC50 del19/C797S, Km ATP) [nM]
9 | O=S(=O)(C1CC1)n1cc(-c2nccc(Nc3cc(N[C@H]4CCCNCC4)c(-c4ccn(C(F)F)n4)cn3)n2)cn1 [Example 17, (S)-N^4-(Azepan-4-yl)-N^2-(2-(1-(cyclopropylsulfonyl)-1H-pyrazol-4-yl)pyrimidin-4-yl)-5-(1-(difluoromethyl)-1H-pyrazol-3-yl)pyridine-2,4-diamine] | > 10000 | – | 2.6 | – | 1 | – | 691 | – | 19.1 | – | – | – | – | – | –
10 | O=S(=O)(C1CC1)n1cc(-c2nccc(Nc3cc(N[C@H]4CC[C@@H](O)CC4)c(-c4cnn(C(F)F)c4)cn3)n2)cn1 [Example 77, (1s,4s)-4-((2-((2-(1-(Cyclopropylsulfonyl)-1H-pyrazol-4-yl)pyrimidin-4-yl)amino)-5-(1-(difluoromethyl)-1H-pyrazol-4-yl)pyridin-4-yl)amino)cyclohexan-1-ol] | > 10000 | – | 11.4 | – | 8.8 | – | 479 | – | 80.8 | – | – | – | – | – | –
11 | O=C1CC[C@]2(CC[C@H](Nc3cc(Nc4ccnc(-c5cnn(S(=O)(=O)C6CC6)c5)n4)ncc3-c3csc(C(F)(F)F)n3)CC2)N1 [Example 52, (5s,8s)-8-((2-((2-(1-(Cyclopropylsulfonyl)-1H-pyrazol-4-yl)pyrimidin-4-yl)amino)-5-(2-(trifluoromethyl)thiazol-4-yl)pyridin-4-yl)amino)-1-azaspiro[4.5]decan-2-one] | > 10000 | 18 | 0.6 | 0.4 | 0.6 | 0.6 | 10 | 1.6 | 0.8 | 1.3 | – | – | – | – | –
12 | Cc1ncc(-c2cnc(Nc3ccnc(-c4cnn(S(=O)(=O)C5CC5)c4)n3)cc2N[C@H]2CC[C@@H](O)CC2)s1 [Example 75, (1s,4s)-4-((2-((2-(1-(Cyclopropylsulfonyl)-1H-pyrazol-4-yl)pyrimidin-4-yl)amino)-5-(2-methylthiazol-5-yl)pyridin-4-yl)amino)cyclohexan-1-ol] | > 10000 | – | 16.8 | – | 1.1 | – | 173 | – | 37.1 | – | – | – | – | – | –
13 | O=S(=O)(C1CC1)n1cc(-c2nccc(Nc3cc(N[C@@H]4CC[C@@H](O)C4)c(-c4ccn(C(F)F)n4)cn3)n2)cn1 [Example 12, (1R,3R)-3-((2-((2-(1-(Cyclopropylsulfonyl)-1H-pyrazol-4-yl)pyrimidin-4-yl)amino)-5-(1-(difluoromethyl)-1H-pyrazol-3-yl)pyridin-4-yl)amino)cyclopentan-1-ol] | > 10000 | – | 2.8 | – | 1.2 | – | 46.9 | – | 30 | – | – | – | – | – | –
14 | O=S(=O)(C1CC1)n1cc(-c2nccc(Nc3cc(N[C@H]4CC[C@@H](O)CC4)c(-c4cnn(C5CC5)c4)cn3)n2)cn1 [Example 78, (1s,4s)-4-((5-(1-Cyclopropyl-1H-pyrazol-4-yl)-2-((2-(1-(cyclopropylsulfonyl)-1H-pyrazol-4-yl)pyrimidin-4-yl)amino)pyridin-4-yl)amino)cyclohexan-1-ol] | > 10000 | – | 5.4 | – | 4.8 | – | 161 | – | 38.5 | – | – | – | – | – | –
15 | O=S(=O)(C1CC1)n1cc(-c2nccc(Nc3cc(N[C@H]4CC[C@@H](NCC(F)F)CC4)c(-c4csc(C(F)(F)F)n4)cn3)n2)cn1 [Example 53, N^2-(2-(1-(Cyclopropylsulfonyl)-1H-pyrazol-4-yl)pyrimidin-4-yl)-N^4-((1s,4s)-4-((2,2-difluoroethyl)amino)cyclohexyl)-5-(2-(trifluoromethyl)thiazol-4-yl)pyridine-2,4-diamine] | > 10000 | 105 | 11.3 | 2.9 | 9.4 | 8.5 | 264 | 15 | 14.2 | 7.7 | – | – | – | – | –
